In the supplement of paper PMC6045584:
± gives the standard deviation of the averaged measurements.

Columns and labels:
[1] = compound: COc1ccc(-c2cc3c(C)nc(N)nc3n([C@H]3CC[C@H](OCCO)CC3)c2=O)cn1; assay: surviving fraction relative to DMSO-only wells; higher = less growth inhibition; details: exposure time: 5 days
How it was run: (§1)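 Lines were retained only if, across three screens, replicate Pearson r was >0.7 and median Z' was >0.3. Viability was measured as CellTiter-Glo luminescence and reported as surviving fraction relative to the median of DMSO-only wells. Readings followed 10 minutes at room temperature, after log-phase tumour cells seeded at 250–500 per well in 384-well plates had been exposed, from 24 hours after seeding, continuously for five days to inhibitors at 0.5, 1, 5, 10, 50, 100, 500 and 1000 nM.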

[2] = compound: C[C@H](CN(C)C)Oc1nc(Nc2cc3cccc(Cl)c3cn2)cnc1C#N; assay: as above; details: exposure time: 5 days
How it was run: as §1

Test System | surviving fraction ([1]; 0.5 nM) | surviving fraction ([1]; 1 nM) | surviving fraction ([1]; 5 nM) | surviving fraction ([1]; 10 nM) | surviving fraction ([1]; 50 nM) | surviving fraction ([1]; 100 nM) | surviving fraction ([1]; 500 nM) | surviving fraction ([1]; 1000 nM) | surviving fraction ([2]; 0.5 nM) | surviving fraction ([2]; 1 nM) | surviving fraction ([2]; 5 nM) | surviving fraction ([2]; 10 nM) | surviving fraction ([2]; 50 nM) | surviving fraction ([2]; 100 nM) | surviving fraction ([2]; 500 nM) | surviving fraction ([2]; 1000 nM)
C33A CERVIX | 0.778 ± 0.031 | 0.943 ± 0.09 | 0.789 ± 0.075 | 0.923 ± 0.073 | 0.614 ± 0.043 | 0.482 ± 0.012 | 0.156 ± 0.024 | 0.101 ± 0.018 | 0.856 ± 0.057 | 0.979 ± 0.11 | 0.903 ± 0.041 | 0.994 ± 0.094 | 0.97 ± 0.074 | 0.937 ± 0.14 | 0.524 ± 0.04 | 0.814 ± 0.054
SKBR3 BREAST | 0.863 ± 0.093 | 0.88 ± 0.073 | 0.833 ± 0.23 | 0.763 ± 0.15 | 0.434 ± 0.073 | 0.204 ± 0.043 | 0.058 ± 0.0053 | 0.0507 ± 0.0047 | 1.04 ± 0.066 | 0.967 ± 0.066 | 0.881 ± 0.058 | 0.843 ± 0.063 | 1.06 ± 0.061 | 0.91 ± 0.18 | 0.667 ± 0.08 | 0.344 ± 0.019
RDES SOFT TISSUE | 1.23 ± 0.074 | 1.24 ± 0.12 | 1.13 ± 0.1 | 1.22 ± 0.097 | 1.34 ± 0.055 | 1.03 ± 0.038 | 0.301 ± 0.015 | 0.166 ± 0.021 | 1.28 ± 0.031 | 1.37 ± 0.031 | 1.3 ± 0.14 | 1.2 ± 0.12 | 1.17 ± 0.086 | 1.32 ± 0.041 | 1.33 ± 0.1 | 1.38 ± 0.13
22RV1 PROSTATE | 1.03 ± 0.041 | 0.999 ± 0.072 | 0.876 ± 0.085 | 0.796 ± 0.021 | 0.516 ± 0.065 | 0.312 ± 0.043 | 0.106 ± 0.019 | 0.0857 ± 0.0063 | 1.15 ± 0.15 | 1.02 ± 0.071 | 1.01 ± 0.074 | 1.06 ± 0.15 | 0.999 ± 0.046 | 0.887 ± 0.14 | 1.03 ± 0.037 | 0.838 ± 0.12
CASKI CERVIX | 0.91 ± 0.034 | 0.901 ± 0.034 | 0.779 ± 0.05 | 0.922 ± 0.031 | 0.426 ± 0.022 | 0.147 ± 0.009 | 0.0347 ± 0.0047 | 0.338 ± 0.52 | 0.839 ± 0.052 | 0.909 ± 0.086 | 0.959 ± 0.032 | 0.922 ± 0.02 | 1.009 ± 0.01 | 0.9417 ± 0.0087 | 0.217 ± 0.011 | 0.12 ± 0.01
HU09 BONE | 0.936 ± 0.058 | 0.941 ± 0.057 | 0.779 ± 0.044 | 0.793 ± 0.078 | 0.346 ± 0.042 | 0.168 ± 0.015 | 0.0383 ± 0.0015 | 0.0237 ± 0.0015 | 1.05 ± 0.11 | 0.964 ± 0.017 | 1.02 ± 0.086 | 1.02 ± 0.092 | 1.07 ± 0.13 | 0.903 ± 0.12 | 0.437 ± 0.063 | 0.261 ± 0.054
MDAMB157 BREAST | 0.899 ± 0.061 | 0.963 ± 0.12 | 0.802 ± 0.051 | 0.812 ± 0.042 | 0.705 ± 0.079 | 0.618 ± 0.088 | 0.432 ± 0.042 | 0.332 ± 0.02 | 0.946 ± 0.057 | 0.982 ± 0.033 | 1.01 ± 0.021 | 0.947 ± 0.048 | 1.03 ± 0.051 | 0.902 ± 0.11 | 0.239 ± 0.015 | 0.136 ± 0.029
NCIH441 LUNG | 1.03 ± 0.068 | 1.03 ± 0.071 | 1.06 ± 0.064 | 0.966 ± 0.058 | 0.886 ± 0.048 | 0.789 ± 0.028 | 0.425 ± 0.021 | 0.412 ± 0.015 | 1.1 ± 0.07 | 1.01 ± 0.04 | 1.1 ± 0.035 | 1.19 ± 0.053 | 1.17 ± 0.026 | 1.16 ± 0.11 | 0.86 ± 0.051 | 0.531 ± 0.031
DU4475 BREAST | 0.752 ± 0.16 | 0.767 ± 0.18 | 0.667 ± 0.25 | 0.639 ± 0.24 | 0.412 ± 0.074 | 0.301 ± 0.057 | 0.0443 ± 0.021 | 0.0323 ± 0.006 | 1 ± 0.29 | 0.794 ± 0.19 | 0.918 ± 0.04 | 0.753 ± 0.064 | 0.777 ± 0.2 | 1.18 ± 0.25 | 0.476 ± 0.076 | 0.337 ± 0.095
HT1080 SOFT TISSUE | 1.02 ± 0.038 | 0.974 ± 0.029 | 1.001 ± 0.0067 | 0.955 ± 0.1 | 0.829 ± 0.012 | 0.661 ± 0.031 | 0.255 ± 0.015 | 0.161 ± 0.0072 | 1.04 ± 0.044 | 1.03 ± 0.011 | 1.04 ± 0.017 | 1.04 ± 0.023 | 1 ± 0.028 | 0.972 ± 0.041 | 0.707 ± 0.018 | 0.398 ± 0.012
MDAMB231 BREAST | 0.98 ± 0.011 | 0.985 ± 0.021 | 0.949 ± 0.016 | 0.902 ± 0.018 | 0.645 ± 0.0077 | 0.495 ± 0.013 | 0.182 ± 0.0094 | 0.145 ± 0.0081 | 0.9579 ± 0.0095 | 0.9571 ± 0.0043 | 0.93 ± 0.076 | 0.959 ± 0.024 | 0.9788 ± 0.0062 | 0.961 ± 0.02 | 0.743 ± 0.029 | 0.492 ± 0.0092
